{"source": "patent US11999782B2", "about": "“Therapeutic agents for the treatment of diseases associated with undesired cell proliferation” (Fundació Privada Institutció Catalana de Recerca I Estudis …, priority 2009, dated 2024)", "key": {"human LIF promoter": {"tested_on": "human LIF promoter", "assay": "LIF promoter luciferase reporter assay", "format": "cell-based", "conditions": "U373MG cells as printed; 100 pM TGFβ1, 20 hours", "description": "FIG. 4. TGFβ induces the transcription of LIF through an activated Smad complex. (A) Diagrams of the indicator constructs of luciferase LIF. (B) A172 glioma cells were transfected with indicator constructs of luciferase LIF (−634/+32), (−276/+32), (−276/+32) mutSBE or (−73/+32). 16 hours after transfection, the cells were treated with 100 pM TGFβ1 for 20 hours and were analyzed for luciferase activity. (C) U373MG cells were treated with 100 pM TGFβ1 for 3 hours, and ChIP assays were performed with the indicated antibodies and the PCR primers indicated. (D, E) The levels of LIF were determined by means of qRT-PCR analysis in U373MG (D) or GEM neurospheres (E) treated with 100 pM TGFβ1 for 3 hours after silencing mediated by siRNA of the indicated members of the indicated Smad family. Western blotting was performed using antibodies specific for Smads or qRT-PCR of Smad4. The β-actin was determined as an internal normalization control.\nGenomic DNA of U373MG was used to amplify the −634/+32 region of the human LIF promoter which was cloned into the pGL2-basic luciferase vector. The deletion constructs (−267/+32), and (−73/+32) were generated by means of digestion of the construct (−634/+32). Two point mutations were introduced in positions −183 bp and −184 bp in the construct (−267/+32) to interrupt the Smad binding element (SBE) and generate the construct (−267/+32) mutSBE. […]"}, "[1]": {"tested_on": "LIF expression in normal human neuroprogenitors", "assay": "LIF mRNA in neurospheres of normal human neuroprogenitors", "format": "cell-based", "conditions": "100 pM, 3 hours, compared with GBM neurospheres", "description": "FIG. 8. Effect of TGFβ on the capacity of self-renewal of normal human neuroprogenitors. (A) Immunocytochemistry of the indicated markers was performed in human neuroprogenitor neurospheres. (B) Neurospheres of the sample of GBM1 and of human neuroprogenitors were incubated with the indicated members of the 100 pM TGFβ family for 3 hours and the mRNA levels of LIF were determined. (C, D) Neurosphere cells of normal human neuroprogenitors were incubated in the same conditions that have been described above in FIG. 1D in the presence of 100 pM TGFβ1 or 20 ng/ml LIF for 7 days and the number of newly formed neurospheres (C) and the number total of cells (D) were determined.\nThe U373MG and A172 cells were a generous gift from J. Rich and D. Bigner and were cultured in DMEM with 10% fetal bovine serum (FBS). The primary culture of tumor cells (PCTC) and the GBM neurospheres were generated as described (Bruna et al., (2007) Cancer Cell 11, 147-160; Gunther et al., (2008) Oncogene. May 1; 27(20):2897-909). Briefly, the samples of tumors were processed in the 30 minutes after the surgical resection. The ground pieces of the samples of human gliomas were digested with 200 U/ml collagenase I (Sigma) and 500 U/ml of DNase I (Sigma) in PBS for 2 hours at 37° C. and with constant vigorous stirring. The suspension of individual cells was filtered through a 70 μm cell filter (BD Falcon) and washed with PBS. […]\nqRT-PCR was performed using Taqman probes from Applied Biosystems, according to the manufacturer's recommendations. The reactions were carried out in a ABI 7000 sequence detector (Perkin Elmer) and the results were expressed as the fold change calculated by means of the DDCt method relative to the control sample or the first quantified sample. […]\nIt was decided to assess whether this effect was specific to tumor cells or was also present in normal neuroprogenitor cells. […] First, it was determined if TGFβ induced LIF in normal human neuroprogenitors. […]"}}, "data": [{"substance": "TGFβ: TGFβ1 (R&D Systems), used at 100 pM according to the figure legends", "values": [{"measurement": "transactivation of LIF promoter reporter constructs (−634/+32 and −276/+32)", "setting": "human LIF promoter", "value": "capable of transactivating"}, {"measurement": "induction of LIF mRNA in normal human neuroprogenitor neurospheres", "setting": "[1]", "value": "did not induce LIF"}]}]}
